According to US20030096379A1, “Method for producing tryptamine derivatives” (priority 2001, published 2003):

Legend:
[1] = molecular target: T1, pig kidney aromatic amino acid decarboxylase (pkAAAD) (Sus scrofa, UniProt P80041); assay: Substrate screen for tryptophan decarboxylation, pkAAAD; type: biochemical; design: key: +: a clear ninhydrin-positive spot at the Rf of standard tryptophan derivatives after 16-65 h; (+): a weak spot in the product region; −: no product observed; NR: experiment not run; conditions: tryptophan derivative, PLP, pH 7.5, 37° C.
T1 construct: Frozen tissue was partially thawed in lysis buffer, then it was extracted and partially purified; from tissue; host or cells: pig kidney
T1 sequence (P80041 1-486): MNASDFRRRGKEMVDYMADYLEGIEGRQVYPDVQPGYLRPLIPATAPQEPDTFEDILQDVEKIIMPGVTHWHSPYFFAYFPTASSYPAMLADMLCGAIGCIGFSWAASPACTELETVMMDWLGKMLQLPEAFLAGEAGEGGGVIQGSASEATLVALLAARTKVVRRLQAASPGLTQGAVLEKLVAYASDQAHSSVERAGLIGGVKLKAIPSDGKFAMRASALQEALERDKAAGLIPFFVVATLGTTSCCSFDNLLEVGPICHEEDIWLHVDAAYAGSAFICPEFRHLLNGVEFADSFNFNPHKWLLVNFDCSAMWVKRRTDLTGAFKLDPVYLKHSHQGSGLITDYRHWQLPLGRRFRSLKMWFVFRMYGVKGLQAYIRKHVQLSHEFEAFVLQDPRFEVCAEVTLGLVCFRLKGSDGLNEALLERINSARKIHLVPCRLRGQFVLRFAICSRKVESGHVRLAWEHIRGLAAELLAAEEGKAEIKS

[2] = molecular target: T2, tryptophan decarboxylase TDC1 (Camptotheca acuminata, UniProt P93082); assay: Substrate screen for tryptophan decarboxylation, TDC1; type: biochemical, C. accuminata; design: key: +: a clear ninhydrin-positive spot at the Rf of standard tryptophan derivatives after 16-65 h; (+): a weak spot in the product region; −: no product observed; NR: experiment not run; conditions: tryptophan derivative, PLP, pH 7.5, 37° C.
T2 construct: made in house; host or cells: E. coli DH5α (pKK233 plasmid from C. Nessler)
T2 sequence (P93082 1-502): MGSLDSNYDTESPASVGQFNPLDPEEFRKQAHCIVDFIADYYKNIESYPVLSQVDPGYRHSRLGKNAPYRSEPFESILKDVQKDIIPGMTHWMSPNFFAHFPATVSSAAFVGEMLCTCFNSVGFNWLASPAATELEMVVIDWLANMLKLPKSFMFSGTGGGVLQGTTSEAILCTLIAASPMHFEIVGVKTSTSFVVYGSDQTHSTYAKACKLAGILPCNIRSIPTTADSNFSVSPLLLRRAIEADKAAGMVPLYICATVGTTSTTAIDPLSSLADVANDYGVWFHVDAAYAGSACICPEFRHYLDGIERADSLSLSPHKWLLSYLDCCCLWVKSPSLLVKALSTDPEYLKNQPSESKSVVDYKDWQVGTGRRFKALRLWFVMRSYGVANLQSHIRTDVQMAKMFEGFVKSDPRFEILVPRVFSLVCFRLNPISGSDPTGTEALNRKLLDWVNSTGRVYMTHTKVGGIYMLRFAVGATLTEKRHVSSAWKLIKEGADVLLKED
Procedure: (§1) A mixture containing 1 μmole of the tryptophan derivative, 0.05 μmole of PLP and 50 μmol of L-serine in 40 mM pH 7.5 KPi buffer was warmed to 37° C., then enzyme solution was added to give a final volume of 1 mL. Aliquots (100 HL) were quenched at intervals and were evaporated in a Savant Speed-vac as in Example 6. For TLC analysis, CH2Cl2/EtOH/H2O/HOAc 49:49:1:1 was used as the solvent. The plates were visualized with short-wave UV light and ninhydrin as in Example 6.
(§2) HPLC techniques were used to monitor the decarboxylation of substituted tryptophans. Mass spectral analysis of the collected HPLC peaks was used to confirm the identity of several tryptamine derivatives, as shown in Table 5.

[3] = molecular target: T3, tryptophan decarboxylase TDC2 (Camptotheca acuminata, UniProt P93083); assay: Substrate screen for tryptophan decarboxylation, TDC2; type: biochemical, C. accuminata; design: key: +: a clear ninhydrin-positive spot at the Rf of standard tryptophan derivatives after 16-65 h; (+): a weak spot in the product region; −: no product observed; NR: experiment not run; conditions: tryptophan derivative, PLP, pH 7.5, 37° C.
T3 construct: made in house; host or cells: E. coli DH5α (pKK233 plasmid from C. Nessler)
T3 sequence (P93083 1-498): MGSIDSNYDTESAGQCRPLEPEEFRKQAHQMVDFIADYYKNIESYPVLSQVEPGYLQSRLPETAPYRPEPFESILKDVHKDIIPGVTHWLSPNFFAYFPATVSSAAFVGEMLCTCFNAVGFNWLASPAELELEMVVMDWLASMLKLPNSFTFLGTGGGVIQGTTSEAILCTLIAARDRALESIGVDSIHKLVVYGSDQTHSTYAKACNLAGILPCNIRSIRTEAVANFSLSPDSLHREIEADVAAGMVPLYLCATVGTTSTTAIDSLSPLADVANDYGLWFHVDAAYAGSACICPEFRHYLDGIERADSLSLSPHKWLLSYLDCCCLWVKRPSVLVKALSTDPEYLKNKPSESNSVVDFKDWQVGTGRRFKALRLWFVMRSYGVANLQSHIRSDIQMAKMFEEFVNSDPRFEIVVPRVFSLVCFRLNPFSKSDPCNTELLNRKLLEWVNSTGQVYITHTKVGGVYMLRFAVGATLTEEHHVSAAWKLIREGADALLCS
Procedure: as §1, §2

TDC1 = molecular target: T4, TDC1 (Camptotheca acuminata, UniProt P93082); assay: Relative decarboxylation rates by Ehrlich's reagent, TDC1; type: biochemical, C. accuminata
T4 construct: made in house; host or cells: E. coli DH5α (pKK233 plasmid from C. Nessler)
T4 sequence (P93082 1-502): T2 sequence (P93082 1-502)
Procedure: (§3) […] Reaction aliquots were quenched in microcentrifuge capsules containing 50 μL each of 6M HCl to quench the enzyme reaction at 2, 5, and 20 min. Quenched aliquots were heated at 50° C. for 40 min with 750 μL each of Ehrlich's reagent (2:24:74 w/v/v 4-(diethyl)aminobenzaldehyde: conc HCl: ethanol). Absorbance was read at 580-nm and compared with standards of serotonin (10-250 μM) or tryptamine (50 to 2000 μM).
(§4) Relative rates for decarboxylation of L-5-hydroxytryptophan (L-5-HOtrp) and L-tryptophan were determined for TDC1 and TDC2 by use of Ehrlich's reagent, discussed in Example 10.

TDC2 = molecular target: T5, TDC2 (Camptotheca acuminata, UniProt P93083); assay: Relative decarboxylation rates by Ehrlich's reagent, TDC2; type: biochemical, C. accuminata
T5 construct: made in house; host or cells: E. coli DH5α (pKK233 plasmid from C. Nessler)
T5 sequence (P93083 1-498): T3 sequence (P93083 1-498)
Procedure: as §3, §4

[4] = molecular target: T6, E. coli DH5α tryptophan synthase (TrpBA) (Escherichia coli, UniProt P0A879); type: biochemical; design: key: +: a clear ninhydrin-positive spot at the Rf of standard tryptophan derivatives after 16-65 h; (+): a weak spot in the product region; −: no product observed; NR: experiment not run; conditions: indole derivative + L-serine + PLP, 37° C., 16-65 h, ninhydrin
T6 construct: made in house; host or cells: E. coli LMG194 (pBAD) or BL-21 (pET)

tryptophanase (TnA) = molecular target: T7, tryptophanase (TnA) (Escherichia coli, UniProt P0A853); type: biochemical, E. coli; design: key: +: a clear ninhydrin-positive spot at the Rf of standard tryptophan derivatives after 16-65 h; (+): a weak spot in the product region; −: no product observed; NR: experiment not run; conditions: indole derivative + L-serine + PLP, 37° C., 16-65 h, ninhydrin
T7 construct: made in house; host or cells: E. coli LMG194 (pBAD) or BL-21 (pET)

TrpBA = molecular target: T8, TrpBA (Escherichia coli, UniProt P0A879); assay: Relative rates of tryptophan derivative synthesis by HPLC, TrpBA; type: biochemical, E. coli; conditions: initial rate estimated by HPLC, indole = 100%, L-serine
T8 construct: made in house; host or cells: E. coli LMG194 (pBAD) or BL-21 (pET)
Procedure: (§5) Reaction mixtures were prepared as in Example 6 and were incubated at 37° C. Aliquots (100 μL) were removed and quenched by addition of to 300 μL of 0.5 M sodium citrate, pH 3.0 in 10% v/v acetonitrile/water in 2 ml microcentrifuge tubes. Following centrifugation for 10 min at 13,000×g, the supernatants were passed through 0.45μ membrane filters prior to HPLC analysis of 20 μL of filtrate.
(§6) TnA reactions were run with L-serine as the 3-carbon substrate.

TnA = molecular target: T9, TnA (Escherichia coli, UniProt P0A853); assay: Relative rates of tryptophan derivative synthesis by HPLC, TnA; type: biochemical, E. coli; conditions: initial rate estimated by HPLC, indole = 100%, L-serine as the 3-carbon substrate
T9 construct: made in house; host or cells: E. coli LMG194 (pBAD) or BL-21 (pET)
Procedure: as §5, with “Aliquots” for “Reaction mixtures were prepared as in Example 6 and were incubated at 37° C. Aliquots”
as §6

TrpBA and TDC1 = assay: Coupled enzyme synthesis monitored by HPLC; type: biochemical; conditions: L-serine, PLP, pH 8.5 phosphate buffer, 37° C.
Procedure: To a solution containing L-serine (25 μmol), pyridoxal phosphate (0.05 μmol) and TrpBA (0.02 to 1.5 units, depending on the substrate), TDC1 (0.2 mL 0.6 units) and KPi buffer (0.05 mmol, pH 7.5) in a volume of 0.8 mL were added […] of 5 mM indole derivative in 20% v/v ethanol/water. The mixture was incubated at 37° C. and aliquots were quenched and analyzed as described for Example 8. In cases where tryptamine and/or tryptophan standards were not available, peaks were collected for mass spectral analysis. Electrospray mass spectral analyses were performed.
Mixtures containing indole, L-serine, PLP and TDC1 were incubated in pH 8.5 phosphate buffer, analyzing aliquots by HPLC, as described in Example 12.
The procedure used in Example 24 was carried out by substituting indole with 2-methylindole, 4-hydroxymethylindole, 5-methoxy-, 5-hydroxymethyl-, 5-methoxycarbonyl, and 5,6-dimethoxyindole.

[5] = Tryptophanase (tryptophan lyase) activity of the enzyme preparation; type: biochemical, E. coli
Procedure: Tryptophan synthase activity was assayed by monitoring the increase in absorbance at 290 nm of a mixture containing serine, indole and PLP (Higgins, W., et al., Biochemistry, 1979, 18, 4827). TnA-catalyzed tryptophan synthesis was also measured by the 290 nm assay, while the tryptophan lyase reaction rate was measured by monitoring the reduction in NADH in reaction mixtures containing L-tryptophan and lactate dehydrogenase, indicating the amount of pyruvate released. Tryptophan decarboxylase was assayed colorimetrically by monitoring the sabsorbance at 580 nm produced by serotonin (AAADs) or tryptamine (TDCs) following treatment of reaction aliquots with Ehrlich's reagent (4-N,N-(dimethyl)aminobenzaldehyde in ethanolic HCl; Nakazawa, H.; Kumagi, H.; Yamada, H. Biochem Biophys. Res. Commun., 1974, 61, 75-82). Serotonin could be detected with approximately 5-fold higher sensitivity by this method as compared with tryptamine. The Ehrlich reagent assay using a microtiter plate format for simultaneous analysis of multiple enzyme samples may also be used. HPLC analysis was performed on acid-quenched reaction aliquots by using a base-deactivated C8 reversed-phase support (Shandon Hypersil BD8). HPLC analysis of acid-quenched aliquots permitted calculation of a rate ratio of 4.5 to 1 for pkAAAD-catalyzed DOPA decarboxylation relative to that of L-5-hydroxytryptophan, in good agreement with the accepted ratio of approximately 5:1. (See Sourkes, T. L. Methods Enzymol., 1987, 142, 170-178, which is incorporated herein by reference.)
Activity is expressed as μmol product formed per minute, TrpBA activity is reported for the reaction: indole+serine−>tryptophan at room temperature as described in the next section. Tryptophanase is reported for the reaction: tryptophan−>indole+pyruvate+NH4^+ at room temperature. The rate of tryptophan synthesis for TrpBA under our assay conditions is approximately 3-fold higher at 37° C.

[6] = pH-rate profiles for tryptophan-metabolizing enzymes; type: biochemical; conditions: between pH 7.5 and 9.5, L-serine and indole
Description: Both AAADs TDC1 and TDC2 were active over the entire optimum range shown by TrpBA. These broad activity ranges make it clear that the coupled enzyme process is not limited by pH.

T6 sequence (P0A879 whole entry): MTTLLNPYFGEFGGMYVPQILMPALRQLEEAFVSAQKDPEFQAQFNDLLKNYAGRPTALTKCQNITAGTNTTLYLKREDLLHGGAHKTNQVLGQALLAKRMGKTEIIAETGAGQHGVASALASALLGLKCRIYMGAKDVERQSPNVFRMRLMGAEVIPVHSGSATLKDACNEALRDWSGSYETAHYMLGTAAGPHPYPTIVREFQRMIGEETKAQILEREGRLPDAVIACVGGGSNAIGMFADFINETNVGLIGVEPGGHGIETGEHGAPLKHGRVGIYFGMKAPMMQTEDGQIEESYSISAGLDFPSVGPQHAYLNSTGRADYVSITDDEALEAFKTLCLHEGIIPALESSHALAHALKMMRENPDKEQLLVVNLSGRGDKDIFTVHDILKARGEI
T6 sequence (P0A877 whole entry, further chain): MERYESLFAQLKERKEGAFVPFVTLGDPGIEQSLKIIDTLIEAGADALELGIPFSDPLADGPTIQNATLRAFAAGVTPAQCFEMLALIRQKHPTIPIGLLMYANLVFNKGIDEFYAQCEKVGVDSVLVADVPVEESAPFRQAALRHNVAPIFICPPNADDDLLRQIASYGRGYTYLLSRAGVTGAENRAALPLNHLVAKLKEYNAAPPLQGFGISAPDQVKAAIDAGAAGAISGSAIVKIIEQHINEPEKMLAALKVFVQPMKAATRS
T8 sequence (P0A879 whole entry): as the sequence (P0A879 whole entry) above
T8 sequence (P0A877 whole entry, further chain): as the sequence (P0A877 whole entry, further chain) above
T9 sequence (P0A853 whole entry): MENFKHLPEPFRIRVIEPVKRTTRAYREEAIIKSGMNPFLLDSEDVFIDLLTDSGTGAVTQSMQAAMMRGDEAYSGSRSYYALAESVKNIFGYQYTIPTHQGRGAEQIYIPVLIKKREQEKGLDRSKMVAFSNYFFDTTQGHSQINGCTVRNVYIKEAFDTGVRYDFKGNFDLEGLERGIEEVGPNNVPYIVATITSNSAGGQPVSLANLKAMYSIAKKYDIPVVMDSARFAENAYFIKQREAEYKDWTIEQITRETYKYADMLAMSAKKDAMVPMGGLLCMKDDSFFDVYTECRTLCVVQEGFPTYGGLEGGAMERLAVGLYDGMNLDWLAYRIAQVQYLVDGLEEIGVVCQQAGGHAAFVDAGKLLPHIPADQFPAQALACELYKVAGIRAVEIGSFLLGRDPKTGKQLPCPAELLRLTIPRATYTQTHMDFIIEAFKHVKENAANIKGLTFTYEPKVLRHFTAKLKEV
T7 sequence (P0A853 whole entry): as above

N[C@@H](Cc1c[nH]c2ccccc12)C(=O)O [L-tryptophan]
pkAAAD (decarboxylation substrate screen) [1]: (+) | TDC1 (decarboxylation substrate screen) [2]: + | TDC2 (decarboxylation substrate screen) [3]: + | ratio trp/5HOtrp TDC1 (relative decarboxylation rate) (TDC1; pH 7.5): 15.1 | ratio trp/5HOtrp TDC1 (relative decarboxylation rate) (TDC1; pH 8.5): 10.5 | ratio trp/5HOtrp TDC1 (relative decarboxylation rate) (TDC1; pH 9.5): 10.3 | ratio trp/5HOtrp TDC2 (relative decarboxylation rate) (TDC2; pH 7.5): 64.1 | ratio trp/5HOtrp TDC2 (relative decarboxylation rate) (TDC2; pH 8.5): 38.3 | ratio trp/5HOtrp TDC2 (relative decarboxylation rate) (TDC2; pH 9.5): 53.6

c1ccc2[nH]ccc2c1 [indole, reference compound]
TrpBA (tryptophan product spot, TLC analysis) [4]: + | TnA (tryptophan product spot, TLC analysis) (tryptophanase (TnA)): + | Relative rate (TrpBA) (TrpBA): 100% | Relative Rate (TnA) (TnA): 100% | formation of tryptophan derivative and tryptamine (HPLC peaks) (TrpBA and TDC1): clearly observable

TnA: E. coli tryptophanase, E.C. 4.1.99.1, cloned and expressed in E. coli
Crude specific activity ([5]; Table 3, TnA): 0.8 units/mg | Crude spec activity ([5]; TnA, tryptophan->indole+pyruvate+NH4+, room temperature): 0.8 | Purified specific activity ([5]; TnA, tryptophan->indole+pyruvate+NH4+, room temperature, after DEAE cellulose): 2.0 Units/mg | percent of the maximum rate [6]: ≥ 84%
